In the assay the test system is Plasmodium berghei. The experiment in a line: Luciferase/luciferin-expressing antifolate-resistant parasites were used to infect a culture of HepG2 cells that were pre-incubated with compounds. Infected hepatocytes emit light due to the luciferase reaction. Assay results are presented as the percent inhibition of light emission compared to control. […]. The format is functional. To be noted: sporozoite; for IC90: read-out: LUCIFERASE INFECTION ASSAY - IC90.

The mark [1] stands for this setting: read-out: LUCIFERASE INFECTION ASSAY - IC50.

Molecules are shown by their SMILES.

Regarding `O=C(Nc1nc2ccccc2n1C1CCCCC1)c1ccoc1`, the IC90 came to 4.66 µM. The IC50 (HEPG2TOX_HILL_SLOPE 1.84, HEPG2TOX_R_SQUARED 0.834, PBLUC_HILL_SLOPE 10.1, PBLUC_R_SQUARED 0.2, read-out: LUCIFERASE INFECTION ASSAY - IC50) was determined as 3.75 µM.

On to `CC(C)c1noc2ncc(C(=O)Nc3ccc(Cl)c(C(F)(F)F)c3)cc12`, for which the IC90 stood at 9.79 µM. The IC50 (HEPG2TOX_HILL_SLOPE 7.95, HEPG2TOX_R_SQUARED 0.873, PBLUC_HILL_SLOPE 16.7, PBLUC_R_SQUARED 0.65, read-out: LUCIFERASE INFECTION ASSAY - IC50) was found to be 8.58 µM.

Take `CC(NC(C)c1ccc(Cl)cc1)C(=O)Nc1sccc1C(N)=O` (stereo not drawn): the IC90 is > 10 µM. The half-inhibitory concentration (IC50) (PBLUC_HILL_SLOPE 1.06, PBLUC_R_SQUARED 0.69, read-out: LUCIFERASE INFECTION ASSAY - IC50) was determined as 2.14 µM.

As to `c1ccc(CN2CCC(Nc3nc(-c4ccccn4)nc4scc(-c5ccccc5)c34)CC2)cc1`, the IC90 was > 10 µM. In addition, the IC50 under setting [1] was > 10 µM.

In the case of `COc1ccc(-c2nc(C(=O)NC3CC3)cc3c2[nH]c2ccccc23)cc1`, the IC90 worked out at 7.59 µM. Further, the IC50 (HEPG2TOX_HILL_SLOPE 1.32, HEPG2TOX_R_SQUARED 0.984, PBLUC_HILL_SLOPE 2.25, PBLUC_R_SQUARED 0.475, read-out: LUCIFERASE INFECTION ASSAY - IC50) is 2.85 µM.

Take `CN(CC(=O)Nc1ccc(Cl)c(S(=O)(=O)N2CCOCC2)c1)C(=O)C1CCCO1` (stereo not drawn): the IC90 was > 10 µM. In addition, the IC50 under setting [1] is > 10 µM.

For `Cc1cc(=O)n2nc(C(F)(F)F)n(CC(=O)Nc3ccc(Sc4ccc(C)c(C)c4)cc3)c2c1`, the IC90 was > 10 µM. Moreover, under setting [1], the half-maximal inhibitory concentration (IC50) is > 10 µM.

Consider `O=[N+]([O-])c1cc(C(F)(F)F)ccc1N/N=C1\CCCCC1CCS(=O)(=O)c1ccc(Cl)cc1` (stereo not drawn), for which the IC90 was > 6.55 µM. Besides, the IC50 under setting [1] is > 6.55 µM.

With `OCc1cccc(-c2cnc3ccc(-c4cccc(F)c4)nn23)c1`, the IC90 came to 4.21 µM. For the same molecule, the IC50 under setting [1] was 3.42 µM.

Consider `CC1CCCCC1NC(=O)/C(C#N)=C/C=C/c1ccccc1[N+](=O)[O-]` (stereo not drawn), for which the IC90 was > 10 µM. The IC50 (HEPG2TOX_HILL_SLOPE 14.8, 8.85, HEPG2TOX_R_SQUARED 0.251, 0.979, PBLUC_HILL_SLOPE 2.96, PBLUC_R_SQUARED 0.503, read-out: LUCIFERASE INFECTION ASSAY - IC50) came out at 8.55 µM.

For the molecule `CNC(=O)c1ccc(CN(Cc2ccco2)C(=O)c2cc(-c3cccs3)nn2-c2ccccc2)cc1`, the IC90 came out at 4.68 µM. For the setting “PBLUC_HILL_SLOPE 10.4, PBLUC_R_SQUARED 0.208, read-out: LUCIFERASE INFECTION ASSAY - IC50”, the IC50 came to 3.79 µM.

In the case of `CCOC(=O)c1c(C)oc(-c2ccc(Cl)cc2)c1S(=O)(=O)Nc1cccc(C)c1`, the IC90 was > 7.61 µM. Moreover, the IC50 (HEPG2TOX_HILL_SLOPE 7.66, HEPG2TOX_R_SQUARED 0.177, read-out: LUCIFERASE INFECTION ASSAY - IC50) is > 7.61 µM.

`O=C1C(=O)N(Cc2ccccc2Cl)c2ccc(F)cc21`: the IC90 was > 11.4 µM. The IC50 under setting [1] was > 11.4 µM.

For the molecule `Cc1nc(-c2ccc(CCNC(=O)CN3C(=O)NC(C)(c4ccc5ccccc5c4)C3=O)cc2)cs1` (stereo not drawn), the IC90 was > 10 µM. The IC50 under setting [1] is > 10 µM.

In the case of `O=C(CNc1cccc(S(=O)(=O)N2CCOCC2)c1)N(C1CCCCC1)C1CCS(=O)(=O)C1` (stereo not drawn), the IC90 is > 10 µM. Further, under setting [1], the IC50 is > 10 µM.

In the case of `Cc1ccc2cccc(Oc3ncnc4scc(-c5ccccc5)c34)c2n1`, the IC90 is > 10 µM. The IC50 (HEPG2TOX_HILL_SLOPE 0.0481, HEPG2TOX_R_SQUARED 0.388, PBLUC_HILL_SLOPE 1.34, PBLUC_R_SQUARED 0.656, read-out: LUCIFERASE INFECTION ASSAY - IC50) came to 5.34 µM.

As for `CC(=O)N(c1nc(/C=C/C(=O)c2ccc(F)c(Br)c2)cs1)c1ccc(F)cc1F`, the IC90 is > 10 µM. In addition, the IC50 under setting [1] is > 10 µM.

Turning to `C=CCc1ccc(O)c(-c2ccc(O)c(CC=C)c2)c1` [HONOKIOL], the IC90 was > 12.4 µM. For the same molecule, the IC50 (FFLUC_HILL_SLOPE 14.9, FFLUC_R_SQUARED 0.388, read-out: LUCIFERASE INFECTION ASSAY - IC50) is > 12.4 µM.

As for `CN(C1CCCCC1)S(=O)(=O)c1cccc(C(=O)Nc2ccc(S(=O)(=O)NCc3ccco3)cc2)c1`, the IC90 stood at 1.72 µM. Moreover, the IC50 (HEPG2TOX_HILL_SLOPE 1.16, HEPG2TOX_R_SQUARED 0.836, PBLUC_HILL_SLOPE 2.1, PBLUC_R_SQUARED 0.409, read-out: LUCIFERASE INFECTION ASSAY - IC50) was determined as 0.606 µM.

In the case of `CCN(CC)S(=O)(=O)c1ccc2nnc(Sc3nc(C)nc4sc5c(c34)CCCC5)n2c1`, the IC90 was > 10 µM. The IC50 under setting [1] was > 10 µM.

In the case of `CCOC(=O)c1cc(C#N)c(N2CCN(C(=O)Nc3cccc(C(F)(F)F)c3)CC2)nc1C(F)(F)F`, the IC90 was > 6.4 µM. For the same molecule, the IC50 (PBLUC_HILL_SLOPE 16, PBLUC_R_SQUARED 0.406, read-out: LUCIFERASE INFECTION ASSAY - IC50) was 6.3 µM.

With `Cc1cc2c(cc1C)NC(c1ccc(Br)cc1)C1C(=O)CCCC1=N2` (stereo not drawn), the IC90 is > 8.31 µM. The IC50 (PBLUC_HILL_SLOPE 1.27, PBLUC_R_SQUARED 0.271, read-out: LUCIFERASE INFECTION ASSAY - IC50) was determined as 6.95 µM.

For `Cc1cccc(NC(=O)CN2CCN(C(=O)c3csc(-c4ccc(C(C)C)cc4)n3)CC2)c1C`, the IC90 came out at 3.81 µM. Besides, the IC50 (PBLUC_HILL_SLOPE 12.3, PBLUC_R_SQUARED 0.609, read-out: LUCIFERASE INFECTION ASSAY - IC50) amounted to 3.19 µM.

In the case of `Cn1c(NCc2ccccc2F)nc2cnc(-c3ccc4c(c3)OCO4)cc21`, the IC90 was found to be 5.21 µM. For the same molecule, the IC50 (HEPG2TOX_HILL_SLOPE 10, HEPG2TOX_R_SQUARED 0.935, PBLUC_HILL_SLOPE 10.5, PBLUC_R_SQUARED 0.0559, read-out: LUCIFERASE INFECTION ASSAY - IC50) was determined as 4.23 µM.

Regarding `N#CC1(c2ccccc2)C/C(=C\c2cccs2)C(=O)/C(=C/c2cccs2)C1` (stereo not drawn), the IC90 was > 10 µM. Also, for the setting “FFLUC_HILL_SLOPE 0.232, FFLUC_R_SQUARED 0.325, read-out: LUCIFERASE INFECTION ASSAY - IC50”, the IC50 was > 10 µM.

With `O=C(NNC(=O)c1ccccc1OCC1CCCO1)c1cc2ccccc2cc1O` (stereo not drawn), the IC90 stood at 4.01 µM. For the same molecule, the IC50 (HEPG2TOX_HILL_SLOPE 0.895, HEPG2TOX_R_SQUARED 0.962, PBLUC_HILL_SLOPE 14.5, PBLUC_R_SQUARED 0.545, read-out: LUCIFERASE INFECTION ASSAY - IC50) stood at 3.45 µM.

On to `CCN1CCN(c2nc(-c3ccccc3)nc3sc(-c4ccccc4)cc23)CC1`, for which the IC90 was > 10 µM. Also, the IC50 (HEPG2TOX_HILL_SLOPE 6.07, HEPG2TOX_R_SQUARED 0.861, PBLUC_HILL_SLOPE 3.24, PBLUC_R_SQUARED 0.199, read-out: LUCIFERASE INFECTION ASSAY - IC50) is 6.9 µM.

Take `C=CCn1c(COc2ccccc2F)nnc1Sc1cc(C)nc2ncnn12`: the IC90 was > 10 µM. Also, the IC50 under setting [1] was > 10 µM.

On to `COc1ccc(OCCN2CCN(C(C)C(=O)Nc3sccc3C(N)=O)CC2)cc1` (stereo not drawn), for which the IC90 was > 10 µM. Besides, the IC50 under setting [1] was > 10 µM.

Consider `Cc1cc(C)c(NC(=O)c2cc(-c3ccccc3)nn2-c2ccccc2)c(C)c1`, for which the IC90 was > 10 µM. Further, under setting [1], the IC50 was > 10 µM.

Turning to `Cc1cc(C(=O)COC(=O)c2ccccc2S(=O)(=O)N(C)c2ccccc2)c(C)n1C1CC1`, the IC90 was > 10 µM. Where the note is “HEPG2TOX_HILL_SLOPE 8.61, HEPG2TOX_R_SQUARED 0.607, read-out: LUCIFERASE INFECTION ASSAY - IC50”, the IC50 was > 10 µM.

Take `O=S(=O)(NCc1cc(C(F)(F)F)cc(C(F)(F)F)c1)c1cc(C(F)(F)F)cc(C(F)(F)F)c1`: the IC90 is > 6.35 µM. The IC50 under setting [1] was > 6.35 µM.

With `Cc1nc2sccn2c1C(=O)NCc1ccccc1Oc1ccccc1`, the IC90 is > 9.08 µM. For the same molecule, the IC50 under setting [1] was > 9.08 µM.

In the case of `CC(C)Oc1ccc(Nc2cc3c(cn2)cc(-c2cccc(C(F)(F)F)c2)n3C)cc1`, the IC90 came out at 5.18 µM. For the same molecule, the IC50 (PBLUC_HILL_SLOPE 8.74, PBLUC_R_SQUARED 0.3, read-out: LUCIFERASE INFECTION ASSAY - IC50) worked out at 4.03 µM.

For the molecule `CC(Nc1ncnc2scc(-c3ccccc3)c12)c1ccc(S(C)(=O)=O)cc1` (stereo not drawn), the IC90 was found to be 7.11 µM. For the same molecule, the IC50 (HEPG2TOX_HILL_SLOPE 1.17, HEPG2TOX_R_SQUARED 0.977, PBLUC_HILL_SLOPE 2.44, PBLUC_R_SQUARED 0.865, read-out: LUCIFERASE INFECTION ASSAY - IC50) came to 2.89 µM.

Consider `CN(C)c1cccc(-c2ccc3ncc(-c4ccoc4)n3n2)c1`, for which the IC90 was found to be 9.49 µM. Under “PBLUC_HILL_SLOPE 19.8, PBLUC_R_SQUARED 0.226, read-out: LUCIFERASE INFECTION ASSAY - IC50”, the IC50 was determined as 8.49 µM.

As for `NC(=O)C(C(=O)/C=C/c1c(Cl)cccc1Cl)=C1SCS1`, the IC90 is > 10 µM. Further, the IC50 (PBLUC_HILL_SLOPE 3.86, PBLUC_R_SQUARED 0.315, read-out: LUCIFERASE INFECTION ASSAY - IC50) worked out at 6.18 µM.

Regarding `Cc1cc(SCC(=O)NC(C)C2CC3CCC2C3)n2c(nc3ccccc32)c1C#N` (stereo not drawn), the IC90 was 3.54 µM. Also, the IC50 (HEPG2TOX_HILL_SLOPE 6.37, HEPG2TOX_R_SQUARED 0.94, PBLUC_HILL_SLOPE 33.9, PBLUC_R_SQUARED 0.41, read-out: LUCIFERASE INFECTION ASSAY - IC50) was found to be 3.32 µM.

Turning to `CC1=C(C(=O)c2ccc(Cl)cc2)C(c2ccc(C(F)(F)F)cc2)NC(=O)N1` (stereo not drawn), the IC90 is > 10 µM. Also, under setting [1], the IC50 was > 10 µM.

The record behind these values is ChEMBL document CHEMBL4483862, “Open-source discovery of chemical leads for next-generation chemoprotective antimalarials” (2018).
